In patent publication US20130059850A1, “AZA-INDOLE DERIVATIVES USEFUL AS MODULATORS OF FAAH” (MERCK SHARP & DOHME CORP., priority 2010, published 2013):

Target: T1, human FAAH (Fatty Acid Amide Hydrolase) (Homo sapiens, UniProt O00519)
T1 construct: The full length FAAH was subcloned into the mammalian expression vector, pcDEF.neo, using XbaI and EcoRI restriction sites; expressed in transfected cells
T1 sequence (O00519 1-579): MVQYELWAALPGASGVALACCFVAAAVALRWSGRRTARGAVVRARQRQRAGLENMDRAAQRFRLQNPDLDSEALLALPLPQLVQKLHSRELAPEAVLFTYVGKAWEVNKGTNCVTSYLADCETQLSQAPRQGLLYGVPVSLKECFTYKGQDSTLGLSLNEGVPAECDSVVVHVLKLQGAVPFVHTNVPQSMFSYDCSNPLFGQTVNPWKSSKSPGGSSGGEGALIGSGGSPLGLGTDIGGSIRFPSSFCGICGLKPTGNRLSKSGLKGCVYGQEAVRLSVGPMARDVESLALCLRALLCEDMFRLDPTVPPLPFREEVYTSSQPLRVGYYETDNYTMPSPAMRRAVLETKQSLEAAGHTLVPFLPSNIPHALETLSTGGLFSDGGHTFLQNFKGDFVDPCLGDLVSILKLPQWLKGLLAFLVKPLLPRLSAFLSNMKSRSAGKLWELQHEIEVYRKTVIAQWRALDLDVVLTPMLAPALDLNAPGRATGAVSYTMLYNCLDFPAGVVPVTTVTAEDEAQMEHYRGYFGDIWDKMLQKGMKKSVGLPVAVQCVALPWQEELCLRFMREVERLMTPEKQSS
Test: FAAH enzyme assay on CHO cell lysate expressing human FAAH (human LY), AAMCA fluorescent substrate
Format: biochemical
Conditions: human FAAH_CHO cell lysate
Description: (§1) To assist in assay development stable cell lines for human, murine and rat full length FAAH were developed. Human FAAH cDNA (Accession No: NM_001441.1) was purchased from Origene (Rockville, Md.). The full length FAAH was subcloned into the mammalian expression vector, pcDEF.neo, using XbaI and EcoRI restriction sites and used for stable cell line generation.
CHO cells expressing FAAH were used to prepare either crude cell lysate or microsome fractions. To harvest cells, tissue culture media was decanted, the monolayer washed three times with Ca^++Mg^++ free PBS and cells recovered after […] in enzyme free dissociation media (Millipore Corp, Billerica, Mass.). Cells were collected by centrifuging at 2000 rpm for 15 min. and the cell pellet re-suspended with 50 mM HEPES (pH 7.4) containing 1 mM EDTA and the protease inhibitors aprotinin (1 mg/ml) and leupeptin (100 μM). The suspension was sonicated at 4° C. and the cell lysate recovered after centrifuging at 12,000×g (14,600 rpm, SS34 rotor) for 20 min at 4° C. to form a crude pellet of cell debris, nuclei, peroxisomes, lysosomes, and mitochondria; the supernatant or cell lysate was used for FAAH enzyme assay. In some cases, microsomes fractions enriched in FAAH were prepared by centrifuging the cell lysate further at 27,000 rpm (100,000×g) in SW28 rotor for 50 minutes at 4° C. The pellet containing FAAH-enriched microsomes was re-suspend in 50 mM HEPES, (pH 7.4) 1 mM EDTA, and any remaining DNA sheared by passage of material through a 23 gauge needle and aliquots of enzyme were store at −80° C. prior to use.
(§2) (American Radiolabeled Chemicals; 1 mCi/ml) with FAAH (Life Sciences (1995), 56, 1999-2005 and Journal of Pharmacology and Experimented Therapeutics (1997), 283, 729-734), Analytical. Biochemistry (2003), 318, 270-5. In addition, routine assays were performed monitoring hydrolysis of arachidonyl-7-amino-4-methylcoumarin amide (AAMCA) by following increase in fluorescence upon release of 7-amino 4-methyl coumarin (λEX=355 nm, μEM=460 nm). Analytical. Biochemistry (2005). 343, 143-51
(§3) Assays are performed on either cell lysate or microsome fractions prepared as described or in whole cell format employing either the fluorescent substrate AAMCA (Cayman chemical, Ann Arbor, Mich.,) or ^3H-anandamide ([ETHANOLAMINE-1-3H] American Radiolabeled Chemicals; 1 mCi/ml). The cell lysate or microsome assay is performed in black PerkinElmer OptiPlates-384F by adding FAAH_CHO (whole cell (human whole cell or human WC), cell lysate (human cell lysate or human LY) or microsome) in assay buffer (50 mM Phosphate, pH 8.0, 1 mM EDTA, 200 mM KCl, 0.2% glycerol, 0.1% fatty acid free BSA) to each well, followed by either DMSO or compound and allowed to incubate at 22-25° C. for fifteen minutes. AAMCA substrate was used to achieve a final concentration of 1 μM and reaction allowed to proceed at room temperature for 1-3 hours. Fluorescent release as a measure of FAAH activity was monitored by reading the plate in a Envision plate Reader (Ex: 360/40 nM; Em: 460/40 nM). Whole cell assay is conducted with cells harvested after rinsing tissue culture flasks three times with Ca^++Mg^++ free PBS, incubating for […] in Enzyme free dissociation media and centrifuging for 5 minutes at 1,000 rpm in table top centrifuge. Cells are resuspended in assay buffer at desired cell number in (4×10^4 cells/assay in 96-well format; 1×10^4 cells/assay in 384-well format) and assayed as described.

**Q.** NS(=O)(=O)c1ccc(-c2[nH]c3ncccc3c2Sc2ccc(Cl)cc2)cc1 [Example A7, 4-{3-[(4-chlorophenyl)sulfanyl]-1H-pyrrolo[2,3-b]pyridin-2-yl}benzenesulfonamide] was tested. Which IC50 did it give?
**A.** 0.00439 µM

Target: T1, human FAAH (Fatty Acid Amide Hydrolase)
Test: FAAH whole cell assay on CHO cells expressing human FAAH (human WC), AAMCA fluorescent substrate
Format: cell-based
Conditions: human FAAH_CHO whole cell
Description: as §1
Murine (accession number NM_010173) and Rat FAAH (accession number NM_024132) was amplified by reverse transcriptase polymerase chain reaction (RT-PCR) from brain cDNA (BD Biosciences, San Jose, Calif.) using primers 1 and 2 or primers 1 and 3 respectively (see Table). The resulting PCR product was ligated into pCR4 TOPO and DNA sequence confirmed. The full length murine FAAH was subcloned into the mammalian expression vector, pcDEFneo using either EcoRI (murine) or KpnI and EcoRI (rat) restriction sites. Chinese hamster ovary cells (CHO) were transfected following manufacturers protocol (AMAXA). Forty eight hours post transfection, cells were trypsinized and transferred to 96 well plates in Iscove's DMEM media supplemented with 2 mM Glutamine, 10% fetal calf serum, 1 mg/ml geneticin and HT Supplement (0.1 mM sodium hypoxanthine, 0.016 mM thymidine) in order to isolate single clones. Following selection in geneticin, individual clones were selected and FAAH activity was assessed using a whole cell fluorescent anandamide assay, modified from Ramarao et al (2005). Following removal of tissue culture media cells were dislodged following addition of Cellstripper (Mediatech, Inc. Manassas, Va.) and transferred to 96 well black clear bottom assay plate, centrifuged at 1,000 rpm for 3 mins and media removed and replaced with assay buffer (50 mM Tris pH8.0, 1 mM EDTA, 0.1% fatty acid free BSA). The reaction was initiated by addition of fluorescent substrate, AMC Arachidonoyl Amide (Cayman Chemical, Ann Arbor, Mich.) to 1 μM and reaction allowed to proceed for 2 hours at room temperature. Release of fluorescence was monitored in a CytoFluor Multiplate Reader. Cells expressing the highest amount of FAAH activity were selected for study with FAAH inhibitors.
as §2
as §3, with “Cells are resuspended in assay buffer at desired cell number in (4×10^4 cells/assay in 96-well format; 1×10^4 cells/assay in 384-well format) and assayed as described.” left out

**Q.** How did the IC50 turn out when NS(=O)(=O)c1ccc(-c2[nH]c3ncccc3c2Sc2ccc(Cl)cc2)cc1 [Example A7, 4-{3-[(4-chlorophenyl)sulfanyl]-1H-pyrrolo[2,3-b]pyridin-2-yl}benzenesulfonamide] was run?
**A.** 0.0219 µM

**Q.** With Cn1cc2cc(-c3[nH]c4ncccc4c3Sc3ccc(Cl)cc3)ccc2n1 [Example B42] as the compound, how does the IC50 read?
**A.** 0.00584 µM

**Q.** For Cn1cc2cc(-c3[nH]c4ncccc4c3Sc3ccc(Cl)cn3)ccc2n1 [Example B44], which IC50 is on record?
**A.** 0.025 µM

**Q.** Which IC50 does the source give for OC[C@H]1CC[C@H](c2[nH]c3ncccc3c2Sc2ccc(Cl)cc2)CC1 [Example B52] here?
**A.** 0.0356 µM

**Q.** Which IC50 does the source give for O=C(c1[nH]c2ncccc2c1Sc1ccc(Cl)cc1)N1CCC(O)CC1 [Example C6, {3-[(4-chlorophenyl)sulfanyl]-1H-pyrrolo[2,3-b]pyridin-2-yl}(4-hydroxypiperidin-1-yl)methanone] here?
**A.** 1.09 µM

**Q.** With O=C(NCCO)c1[nH]c2ncccc2c1Sc1ccc(Cl)cc1 [Example C18] as the compound, how does the IC50 read?
**A.** 2.98 µM

**Q.** For O=C(NCCCO)c1[nH]c2ncccc2c1Sc1ccc(Cl)cc1 [Example C19], which IC50 is on record?
**A.** 0.607 µM

**Q.** For C[C@H](CO)NC(=O)c1[nH]c2ncccc2c1Sc1ccc(Cl)cc1 [Example C20], which IC50 is on record?
**A.** 2.11 µM

**Q.** O=C(NCCCCO)c1[nH]c2ncccc2c1Sc1ccc(Cl)cc1 [Example C21] was tested. Which IC50 did it give?
**A.** 0.363 µM

**Q.** O=C(NCC1(CO)CCOCC1)c1[nH]c2ncccc2c1Sc1ccc(Cl)cc1 [Example C22] was tested. Which IC50 did it give?
**A.** 1.17 µM

**Q.** Cn1cccc2c(Sc3ccc(Cl)cc3)c(-c3ccc(C(O)C(F)F)cc3)nc1-2 (centres unmarked) [Example E25] was tested. Which IC50 did it give?
**A.** 0.0595 µM

**Q.** With Cn1cccc2c(Sc3ccc(Cl)cc3)c(C(=O)NC3CCC(O)CC3)nc1-2 (centres unmarked) [Example E26] as the compound, how does the IC50 read?
**A.** 0.504 µM

**Q.** How did the IC50 turn out when C[C@@H](Cc1nc2n(C)cccc-2c1Sc1ccc(Cl)cc1)C(C)(C)O [Example E27] was run?
**A.** 0.112 µM

**Q.** For Cn1cccc2c(Sc3ccc(Cl)cc3)c(-c3ccc4c(c3)CNC4=O)nc1-2 [Example E28], which IC50 is on record?
**A.** 0.024 µM

**Q.** Which IC50 does the source give for Cn1cc2cc(-c3nc4n(C)cccc-4c3Sc3ccc(Cl)cc3)ccc2n1 [Example E29] here?
**A.** 0.0173 µM

**Q.** For Cn1cc2cc(-c3nc4n(C)cccc-4c3Sc3ccc(Cl)cn3)ccc2n1 [Example E30], which IC50 is on record?
**A.** 0.0872 µM

**Q.** How did the IC50 turn out when Cn1cccc2c(Sc3ccc(Cl)cn3)c(-c3ccc4c(c3)CNC4=O)nc1-2 [Example E31] was run?
**A.** 0.144 µM

**Q.** For COC(=O)N1CCC(c2nc3n(C)cccc-3c2Sc2ccc(Cl)cc2)CC1 [Example E32], which IC50 is on record?
**A.** 0.00935 µM

**Q.** CCOC(=O)CCc1[nH]c2ncccc2c1Sc1ccc(Cl)cc1 [Example F3, Ethyl 3-{3-[(4-chlorophenyl)sulfanyl]-1H-pyrrolo[2,3-b]pyridin-2-yl}propanoate] was tested. Which IC50 did it give?
**A.** 0.0649 µM

**Q.** How did the IC50 turn out when Clc1ccc(Sc2c(CC3CCCCC3)[nH]c3ncccc23)cc1 [Example F4] was run?
**A.** 0.266 µM

**Q.** Which IC50 does the source give for N#CCCCc1[nH]c2ncccc2c1Sc1ccc(Cl)cc1 [Example F6] here?
**A.** 3.47 µM

**Q.** Which IC50 does the source give for CCOC(=O)CCCc1[nH]c2ncccc2c1Sc1ccc(Cl)cc1 [Example F10] here?
**A.** 0.35 µM

**Q.** For Clc1ccc(Sc2c(C3CCNCC3)[nH]c3ncccc23)cc1 [Example G3, 3-[(4-chlorophenyl)sulfanyl]-2-(piperidin-4-yl)-1H-pyrrolo[2,3-b]pyridine], which IC50 is on record?
**A.** 0.672 µM

**Q.** How did the IC50 turn out when COC(=O)N1CCC(c2[nH]c3ncccc3c2Sc2ccc(Cl)cc2)CC1 [Example G5, Methyl 4-{3-[(4-chlorophenyl)sulfanyl]-1H-pyrrolo[2,3-b]pyridin-2-yl}piperidine-1-carboxylate] was run?
**A.** 0.0111 µM

**Q.** COC(=O)CN1CCC(c2[nH]c3ncccc3c2Sc2ccc(Cl)cc2)CC1 [Example G7, Methyl (4-{3-[(4-chlorophenyl)sulfanyl]-1H-pyrrolo[2,3-b]pyridin-2-yl}piperidin-1-yl)acetate] was tested. Which IC50 did it give?
**A.** 0.0238 µM

**Q.** How did the IC50 turn out when CC(C)(O)CCc1[nH]c2ncccc2c1Sc1ccc(Cl)cc1 [Example H2, 4-{3-[(4-chlorophenyl)sulfanyl]-1H-pyrrolo[2,3-b]pyridin-2-yl}-2-methylbutan-2-ol] was run?
**A.** 0.152 µM

**Q.** How did the IC50 turn out when OCCCc1[nH]c2ncccc2c1Sc1ccc(Cl)cc1 [Example H4, 3-{3-[(4-chlorophenyl)sulfanyl]-1,1-pyrrolo[2,3-b]pyridin-2-yl}propan-1-ol] was run?
**A.** 0.689 µM

**Q.** Which IC50 does the source give for CC(C)(O)CN1CCC(c2[nH]c3ncccc3c2Sc2ccc(Cl)cc2)CC1 [Example H5] here?
**A.** 0.0318 µM

**Q.** For OCCCCc1[nH]c2ncccc2c1Sc1ccc(Cl)cc1 [Example H6], which IC50 is on record?
**A.** 0.523 µM

**Q.** How did the IC50 turn out when C[C@H](CO)Cc1[nH]c2ncccc2c1Sc1ccc(Cl)cc1 [Example H7] was run?
**A.** 1.2 µM

**Q.** How did the IC50 turn out when C[C@@H](Cc1[nH]c2ncccc2c1Sc1ccc(Cl)cc1)C(C)(C)O [Example H8] was run?
**A.** 0.0885 µM
